Assay results: PubChem BioAssay (NCI)
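1) Cells in 96-well plates. 2) Compound, 48 h, 5 concentrations. 3) Linear interpolation between surrounding doses. 4) Unreached endpoint = highest concentration. At the GI50, growth is halved. At the TGI there is no net growth.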

Legend:
Test in all cases: inhibition of tumour cell growth, NCI panel, 48 h
DU-145 prostate = test system: DU-145 prostate
HCT-15 colon = test system: HCT-15 colon
HL-60(TB) leukemia = test system: HL-60(TB) leukemia
HOP-62 NSCLC = test system: HOP-62 NSCLC
HT29 colon = test system: HT29 colon
MCF7 breast = test system: MCF7 breast
NCI-H522 lung = test system: NCI-H522 lung
OVCAR-8 ovarian = test system: OVCAR-8 ovarian
RXF 393 renal = test system: RXF 393 renal
SNB-19 CNS = test system: SNB-19 CNS

| SMILES | TGI (DU-145 prostate) [µM] | TGI (HCT-15 colon) [µM] | TGI (HL-60(TB) leukemia) [µM] | TGI (HOP-62 NSCLC) [µM] | TGI (HT29 colon) [µM] | TGI (MCF7 breast) [µM] | TGI (NCI-H522 lung) [µM] | TGI (OVCAR-8 ovarian) [µM] | TGI (RXF 393 renal) [µM] | TGI (SNB-19 CNS) [µM] | GI50 (DU-145 prostate) [µM] | GI50 (HCT-15 colon) [µM] | GI50 (HL-60(TB) leukemia) [µM] | GI50 (HOP-62 NSCLC) [µM] | GI50 (HT29 colon) [µM] | GI50 (MCF7 breast) [µM] | GI50 (NCI-H522 lung) [µM] | GI50 (OVCAR-8 ovarian) [µM] | GI50 (RXF 393 renal) [µM] | GI50 (SNB-19 CNS) [µM] |
| --- | --- | --- | --- | --- | --- | --- | --- | --- | --- | --- | --- | --- | --- | --- | --- | --- | --- | --- | --- | --- |
| Nc1ccc(S(=O)(=O)C23CC4CC(CC(C4)C2)C3)cc1 | > 100 | > 100 | > 100 | > 100 | > 100 | > 100 | > 100 | > 100 | 79.4 | > 100 | – | – | – | – | – | – | – | – | – | – |
| C#CC1(O)C(COP(=O)(O)OC2CC(n3cc(F)c(=O)[nH]c3=O)OC2CO)OC(n2ccc(N)nc2=O)C1O (centres undefined) | 3.62 | > 38.9 | – | > 100 | > 100 | 0.137 | 3.15 | 14.5 | 2.37 | > 100 | < 0.011 | < 0.01 | < 0.0181 | < 0.01 | < 0.0139 | < 0.01 | < 0.014 | < 0.01 | < 0.0342 | < 0.0205 |
| CC(C)c1ccc(C(=O)Nc2sc3c(c2C#N)CCC(=O)C3)cc1 | > 100 | 1.95 | – | > 87.6 | > 21.9 | > 45 | 2.16 | > 100 | 1.14 | > 100 | 4.26 | 0.31 | 0.413 | 3.02 | 0.465 | 0.337 | 0.248 | 0.431 | 0.271 | 0.409 |
| NC(=O)c1cc(Br)cc(C2CCCCC2)c1O | 24.9 | 30.7 | 46.3 | 28.4 | 32 | 30.8 | – | 30 | 22 | 27.9 | 12.3 | 13.7 | 20.9 | 14.1 | 16.8 | 15.8 | – | 14.4 | 6.44 | 13.8 |
| COc1ccc2c(Nc3ccc(NS(C)(=O)=O)cc3)c3ccccc3nc2c1 | 6.46 | 11.4 | 4.45 | 2.72 | 1.58 | 1.99 | 1.84 | 5.26 | 2.4 | 11.4 | 0.315 | 1.41 | 0.427 | 0.429 | 0.326 | 0.3 | 0.304 | 0.432 | 0.871 | 0.445 |
| O=C1C=C(Br)C(=O)C12CCc1ccccc12 (centres undefined) | 31.7 | 19.7 | 25.2 | 69 | 45 | 48.5 | 10.2 | 64.6 | 19.1 | 66.6 | – | – | – | – | – | – | – | – | – | – |
| C1CSCCCSCCSCCCSC1 | > 100 | > 100 | – | > 100 | > 100 | > 100 | > 100 | > 100 | > 100 | > 100 | – | – | – | – | – | – | – | – | – | – |
| COc1cc(/C=C\[N+](=O)[O-])ccc1OCc1ccccc1 | 3.52 | 3.51 | 6.16 | 6.58 | 4 | 3.27 | 6.62 | 9.56 | 3.73 | 8.41 | 1.8 | 1.72 | 2.48 | 2.35 | 1.94 | 1.44 | 2.04 | 2.91 | 1.8 | 2.64 |
| CCOC(=O)C(=Cc1ccccc1[N+](=O)[O-])C(=O)OCC | 12 | 4.47 | 45.5 | 12.9 | 9.39 | 14.2 | 4.63 | 11.3 | 2.78 | 16.4 | 3.22 | 1.83 | 3.3 | 3.48 | 3.27 | 2.52 | 1.86 | 2.87 | 1.33 | 4.27 |
| O=C(c1ccc2ncc(-c3nc(NC4CC4)ncc3F)n2c1)N1CCOCC1 | > 100 | > 100 | 5.15 | 8.28 | 13.1 | 11 | 7.41 | > 100 | 3.02 | – | 2.68 | 2.51 | 1.97 | 2.95 | 2.22 | 2.71 | 1.99 | 2.44 | 1.07 | – |
| Clc1ccc2[nH]cc(-c3nc(-c4c[nH]c5ncccc45)cs3)c2c1 | 21.4 | 7.9 | 45.6 | 27.3 | – | 16.5 | 13.7 | 20.8 | 11.4 | 43.9 | 4.23 | 2.6 | 2.89 | 5.2 | – | 2.46 | 2.73 | 3.87 | 2.69 | 5.97 |
| Cc1nc2ccc(Nc3nc(NCCN4CCOCC4)nc(Nc4ccc(F)cc4)n3)cc2n1Cc1ccccc1 | 71.6 | 5.68 | 4.72 | 6.23 | – | 11.7 | 9.48 | > 100 | 4.07 | 15.2 | 5.56 | 2.16 | 1.82 | 1.88 | – | 2.46 | 2.92 | 3.28 | 1.59 | 3.07 |
